Consider eleven molecules from article PMC6152322, “Synthesis and Evaluation of New Oxadiazole, Thiadiazole, and Triazole Derivatives as Potential Anticancer Agents Targeting MMP-9” (Molecules : A Journal of Synthetic Chemistry and Natural …, 2017).

Series [1] deals with A549 human lung adenocarcinoma cell line. The series can be described thus: XTT cytotoxicity assay on A549 cells. In kind it is cell-based. Conditions: for IC50: Mean ± standard deviation, read-out: IC50 Values for Cell Lines A549. The text has this: (§1) NIH/3T3 Mouse embryonic fibroblast (ATCC® CRL-1658™, American Type Culture Collection (ATCC), Manassas, VA, USA), A549 human lung adenocarcinoma (ATCC® CCL-185™, American Type Culture Collection (ATCC), Manassas, VA, USA) and C6 rat glioma (ATCC® CCL-107™, American Type Culture Collection (ATCC), Manassas, VA, USA) cell lines were used for cytotoxicity tests. NIH/3T3 cell line was used to investigate the selectivity of the compounds, whereas other cell lines were used to determine anticancer activity. All cell lines were incubated according to the instructions of the supplier at 37 °C in a humidified atmosphere of 95% air and 5% CO2. NIH/3T3, A549 and C6 cells were seeded at 1 × 10^4 cells into each well of 96-well plate. After 24 h of incubating period, the culture mediums were removed and compound was added to culture medium at 500–3.9 μg/mL doses with a dilution factor of 2 (3.9, 7.8, 15.6, 31.2, 62.5, 125, 250, 500 μg/mL). After 24 h of incubation, XTT (2,3-bis(2-methoxy-4-nitro-5-sulfophenyl)-2H-tetrazolium-5-carboxanilide) assay was performed using the In Cytotox-XTT 1 Parameter Cytotoxicity Kit (Xenometrix, Allschwil, Switzerland) as previously described. […] All experiments were done in quadruplicates at three different time points, and the results were given as Mean ± standard deviation. Cisplatin was used as a positive control. The stock solutions of the compounds were prepared in dimethyl sulfoxide (DMSO) and further dilutions were made with fresh culture medium. The final DMSO concentration was under 0.1%.
(§2) Inhibition%=100−( corrected mean OD sample/corrected mean OD solvent controls ×100)

The subject of a further series is C6 rat glioma cell line. The series can be described thus: XTT cytotoxicity assay on C6 cells. The note with it: 24 h incubation, Mean ± standard deviation, read-out: IC50 Values for Cell Lines C6. In kind it is cell-based.
Source text: as §1, §2
A general note: Formazan colour is commonly taken as a measure of viable cells.

In series [2] the test system is NIH/3T3 mouse embryonic fibroblast cell line. As to the kind of experiment: XTT cytotoxicity assay on NIH/3T3 cells. In kind it is cell-based. The note with it: NIH3T3, 24 h incubation, Mean ± standard deviation, read-out: IC50 Values for Cell Lines NIH/3T3.
Source text: as §1, §2

A further series has as its target T1, MMP-8 (Homo sapiens, UniProt P22894).
T1 construct: purchased Enzo Life Sciences Inc
As to the kind of experiment: MMP-8 colorimetric inhibition assay. Conditions: for Inhibition % (Mean ± SD) MMP-8: 1.3 μM. It counts as biochemical. An excerpt: (§3) MMP-1, -2, -8, -9, -13 colorimetric kits were purchased from Enzo Life Sciences Inc. (Farmingdale, New York, NY, USA). The MMP Colorimetric Drug Discovery Kits are complete assay system designed to screen MMP inhibitors using a thiopeptide as a chromogenic substrate (Ac-PLG-[2-mercapto-4-methyl-pentanoyl]-LG-OC2H5). The MMP cleavage site peptide bond is replaced by a thioester bond in the thiopeptide. Hydrolysis of this bond by a MMP produces a sulfhydryl group, which reacts with DTNB [5,5′-dithiobis(2-nitrobenzoic acid), Ellman’s reagent] to form 2-nitro-5-thiobenzoic acid, which can be detected by its absorbance at 412 nm. The assays were conducted in triplicate. The UV absorbance was read at 412 nm using a microplate reader (BioTek, PowerWave, Gen5 software, Winooski, VT, USA) at room temperature. NNGH was used as a control inhibitor. Data was expressed as Mean ± SD [63].
(§4) The inhibitor% remaining activity of MMPs was calculated using the following equation: Inhibitor% activity remaining = (V inhibitor/V control) × 100
(§5) The inhibition (percent) of MMPs was calculated using the following equation:I (%) = 100 − Inhibitor% activity remaining

The target of a further series is T2, MMP-9 (Homo sapiens, UniProt P14780).
T2 construct: purchased Enzo Life Sciences Inc
The series can be described thus: MMP-9 colorimetric inhibition assay. The note with it: for inhibition at 1.3 µM: read-out: Inhibition % (Mean ± SD) MMP-9. In kind it is biochemical.
Source text: as §3, §4, §5

The target in a further series is T3, MMP-1 (Homo sapiens, UniProt P03956).
T3 construct: purchased Enzo Life Sciences Inc
T3 sequence (P03956 100-469): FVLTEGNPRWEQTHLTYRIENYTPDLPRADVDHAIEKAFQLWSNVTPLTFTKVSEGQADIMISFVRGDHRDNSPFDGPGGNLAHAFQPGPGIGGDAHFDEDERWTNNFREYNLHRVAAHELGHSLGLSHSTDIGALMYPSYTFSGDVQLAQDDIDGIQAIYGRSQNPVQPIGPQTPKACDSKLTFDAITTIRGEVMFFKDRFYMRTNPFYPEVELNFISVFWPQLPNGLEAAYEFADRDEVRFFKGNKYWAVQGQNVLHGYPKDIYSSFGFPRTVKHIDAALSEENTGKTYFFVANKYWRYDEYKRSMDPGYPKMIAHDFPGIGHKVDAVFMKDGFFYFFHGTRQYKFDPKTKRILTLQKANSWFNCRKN
As to the kind of experiment: MMP-1 colorimetric inhibition assay. It counts as biochemical. The note with it: 1.3 μM.
Source text: as §3, §4, §5

The next series concerns the target T4, MMP-2 (Homo sapiens, UniProt P08253).
T4 construct: purchased Enzo Life Sciences Inc
T4 sequence (P08253 110-660): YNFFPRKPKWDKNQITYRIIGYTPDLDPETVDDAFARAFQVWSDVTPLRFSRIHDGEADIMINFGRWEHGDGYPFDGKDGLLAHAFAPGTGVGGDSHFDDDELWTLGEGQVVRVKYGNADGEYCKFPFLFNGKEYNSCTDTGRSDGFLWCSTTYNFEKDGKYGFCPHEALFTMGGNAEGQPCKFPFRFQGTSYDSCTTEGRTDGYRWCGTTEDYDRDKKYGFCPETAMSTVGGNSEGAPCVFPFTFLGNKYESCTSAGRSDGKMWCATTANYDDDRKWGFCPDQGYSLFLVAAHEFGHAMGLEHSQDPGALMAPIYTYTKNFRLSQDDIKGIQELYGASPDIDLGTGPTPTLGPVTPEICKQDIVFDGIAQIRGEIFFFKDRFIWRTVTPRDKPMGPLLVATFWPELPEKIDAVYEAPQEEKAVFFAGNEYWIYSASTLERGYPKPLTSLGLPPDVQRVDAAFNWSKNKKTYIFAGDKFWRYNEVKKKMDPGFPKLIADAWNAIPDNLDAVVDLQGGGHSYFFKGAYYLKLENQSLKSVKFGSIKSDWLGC
As to the kind of experiment: MMP-2 colorimetric inhibition assay. It counts as biochemical. Conditions: 1.3 μM.
Source text: as §3, §4, §5

The target in another series is T5, MMP-13 (Homo sapiens, UniProt P45452).
T5 construct: purchased Enzo Life Sciences Inc
As to the kind of experiment: MMP-13 colorimetric inhibition assay. In kind it is biochemical. Conditions: 1.3 μM.
Source text: as §3, §4, §5

The mark [3] stands for this setting: Homo sapiens, A549, 24 h incubation.

SMILES strings stand for the structures. Like-named read-outs stand apart in the source and are kept apart here.

T2 sequence (P14780 94-707): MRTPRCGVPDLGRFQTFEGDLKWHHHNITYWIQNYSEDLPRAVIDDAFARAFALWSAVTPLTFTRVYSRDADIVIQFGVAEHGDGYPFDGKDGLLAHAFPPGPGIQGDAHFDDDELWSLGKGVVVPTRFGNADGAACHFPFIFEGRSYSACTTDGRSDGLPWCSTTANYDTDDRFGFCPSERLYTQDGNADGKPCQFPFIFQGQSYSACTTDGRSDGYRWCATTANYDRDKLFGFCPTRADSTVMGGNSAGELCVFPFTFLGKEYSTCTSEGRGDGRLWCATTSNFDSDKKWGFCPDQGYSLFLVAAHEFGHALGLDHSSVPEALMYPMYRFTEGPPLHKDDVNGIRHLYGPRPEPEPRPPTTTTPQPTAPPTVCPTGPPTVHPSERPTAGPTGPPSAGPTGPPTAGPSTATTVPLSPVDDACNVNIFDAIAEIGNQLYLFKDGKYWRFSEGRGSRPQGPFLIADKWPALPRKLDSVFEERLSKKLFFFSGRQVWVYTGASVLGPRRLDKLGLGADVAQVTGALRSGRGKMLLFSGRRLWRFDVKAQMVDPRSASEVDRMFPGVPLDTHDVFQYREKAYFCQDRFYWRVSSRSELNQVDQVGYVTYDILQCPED
T1 sequence (P22894 101-467): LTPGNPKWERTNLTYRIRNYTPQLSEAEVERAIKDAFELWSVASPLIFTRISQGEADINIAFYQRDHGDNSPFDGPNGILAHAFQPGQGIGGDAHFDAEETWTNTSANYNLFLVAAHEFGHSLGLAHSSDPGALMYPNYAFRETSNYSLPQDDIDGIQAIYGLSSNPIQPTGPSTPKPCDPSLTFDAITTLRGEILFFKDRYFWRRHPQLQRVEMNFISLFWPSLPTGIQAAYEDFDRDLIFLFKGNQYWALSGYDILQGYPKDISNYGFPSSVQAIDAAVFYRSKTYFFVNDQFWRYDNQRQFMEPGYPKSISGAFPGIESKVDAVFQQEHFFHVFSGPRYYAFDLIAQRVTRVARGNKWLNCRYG

`N.N.[Cl][Pt][Cl]` [Cisplatin, reference compound]: the IC50 in [1] (24 h incubation) is 140 ± 30 µM; in the series with C6 rat glioma cell line it was 103 ± 26 µM.
On to `O=C(CSc1nnc(Nc2ccc(Cl)cc2Cl)s1)N1CCOCC1` [Compound 1, 2-{[5-((2,4-Dichlorophenyl)amino)-1,3,4-thiadiazol-2-yl]thio}-1-morpholinoethan-1-one], for which the melting point was found to be 154 °C. Moreover, in [2], the IC50 is 308 ± 37 µM. The IC50 in [1] (setting [3]) is above 1230 µM. Further, in the series with C6 rat glioma cell line (Rattus norvegicus, Glioma cell), the IC50 was 128 ± 27 µM. In addition, the inhibition at 1.3 µM at MMP-8 (read-out: Inhibition % (Mean ± SD) MMP-8) turned out to be 15 ± 1.4%. Also, the inhibition at 1.3 µM at MMP-9 worked out at 24.8 ± 0.86%.
As for `Nn1c(COc2ccccc2)nnc1SCC(=O)N1CCOCC1` [Compound 2, 2-{[4-Amino-5-(phenoxymethyl)-4H-1,2,4-triazol-3-yl]thio}-1-morpholinoethan-1-one], the melting point is 213 °C. In addition, the IC50 in series [2] was 1410 ± 94 µM. Further, the IC50 in series [1] (setting [3]) was above 1430 µM. Also, the IC50 in the series on C6 rat glioma cell line (Rattus norvegicus, Glioma cell) was above 1430 µM.
Take `COc1ccc(OCc2nnc(SCC(=O)N3CCOCC3)o2)cc1` [Compound 3, 2-{[5-((4-Methoxyphenoxy)methyl)-1,3,4-oxadiazol-2-yl]thio}-1-morpholinoethan-1-one]: the melting point was 119 °C. The IC50 in [2] is 1370 ± 74 µM. Further, the IC50 in [1] (setting [3]) stood at 1370 ± 58 µM. Besides, the IC50 with C6 rat glioma cell line (Rattus norvegicus, Glioma cell) was 507 ± 49 µM.
As for `O=C(CSc1nnc(COc2ccc3c(c2)CCCC3)o1)N1CCOCC1` [Compound 4, 2-{[5-(((5,6,7,8-Tetrahydronaphthalen-2-yl)oxy)methyl)-1,3,4-oxadiazol-2-yl]thio}-1-morpholinoethan-1-one], the IC50 is 1280 ± 90 µM in [2]; above 1280 µM in series [1] (setting [3]); above 1280 µM in the series on C6 rat glioma cell line (Rattus norvegicus, Glioma cell).
`O=C(CSc1nnc(Nc2ccc(Cl)cc2Cl)s1)NCc1ccc2c(c1)OCO2` [Compound 5, N-(1,3-Benzodioxol-5-ylmethyl)-2-{[5-((2,4-dichlorophenyl)amino)-1,3,4-thiadiazol-2-yl]thio}acetamide] registered a melting point of 187 °C. Also, the IC50 in series [2] is above 1070 µM. Also, the “cytotoxic activity against A549 cell line (in words)” value (from here on “cytotoxic activity”) in series [1] (24 h incubation) is reported as “did not show any cytotoxic activity”. Further, the IC50 in series [1] (setting [3]) was above 1070 µM. For the same molecule, in the series on C6 rat glioma cell line (Rattus norvegicus, Glioma cell), the IC50 was above 1070 µM.
Regarding `Nn1c(COc2ccccc2)nnc1SCC(=O)NCc1ccc2c(c1)OCO2` [Compound 6, 2-{[4-Amino-5-(phenoxymethyl)-4H-1,2,4-triazol-3-yl]thio}-N-(1,3-benzodioxol-5-ylmethyl)acetamide], the melting point is 148 °C. Besides, in series [2], the IC50 is above 1210 µM. Also, the “cytotoxic activity” value in [1] (24 h incubation) is recorded as “did not show any cytotoxic activity”. Besides, the IC50 in [1] (setting [3]) is above 1210 µM. Moreover, the IC50 in the series on C6 rat glioma cell line (Rattus norvegicus, Glioma cell) is above 1210 µM.
For the molecule `COc1ccc(OCc2nnc(SCC(=O)NCc3ccc4c(c3)OCO4)o2)cc1` [Compound 7, N-(1,3-Benzodioxol-5-ylmethyl)-2-{[5-((4-methoxyphenoxy)methyl)-1,3,4-oxadiazol-2-yl]thio}acetamide], the melting point amounted to 127 °C. The IC50 in [2] amounted to 100 ± 11 µM. Also, the “cytotoxic activity” value in [1] (24 h incubation) is reported as “did not show any cytotoxic activity”. Further, in series [1] (setting [3]), the IC50 was above 1170 µM. The IC50 in the series on C6 rat glioma cell line (Rattus norvegicus, Glioma cell) is above 1170 µM.
The molecule `O=C(CSc1nnc(COc2ccc3c(c2)CCCC3)o1)NCc1ccc2c(c1)OCO2` [Compound 8, N-(1,3-Benzodioxol-5-ylmethyl)-2-{[5-(((5,6,7,8-tetrahydronaphthalen-2-yl)oxy)methyl)-1,3,4-oxadiazol-2-yl]thio}acetamide] had a melting point of 96 °C. Also, in [2], the IC50 was above 1100 µM. In series [1] (setting [3]), the IC50 was determined as 125 ± 20 µM. For the same molecule, in the series on C6 rat glioma cell line (Rattus norvegicus, Glioma cell), the IC50 came out at 137 ± 15 µM. The “Inhibition % (Mean ± SD) MMP-8” value on MMP-8 was “no inhibitory activity”. For the same molecule, the inhibition at 1.3 µM at MMP-9 came to 25.8 ± 2.16%.
Molecule `O=C(CSc1nnc(-c2ccccc2)o1)NCc1ccc2c(c1)OCO2` [Compound 9, N-(1,3-Benzodioxol-5-ylmethyl)-2-[(5-phenyl-1,3,4-oxadiazol-2-yl)thio]acetamide] returned a melting point of 136 °C. Moreover, the IC50 in series [2] was 888 ± 29 µM. In [1] (setting [3]), the IC50 is 349 ± 46 µM. The IC50 with C6 rat glioma cell line (Rattus norvegicus, Glioma cell) was found to be 157 ± 16 µM. The “Inhibition % (Mean ± SD) MMP-8” value at MMP-8 is recorded as “no inhibitory activity”. Moreover, at MMP-9, the inhibition at 1.3 µM is 30.5 ± 3.27%.
As for `COc1ccc(S(=O)(=O)N(CC(=O)NO)CC(C)C)cc1` [NNGH, N-isobutyl-N-(4-methoxyphenylsulfonyl)glycyl hydroxamic acid], the “Inhibition % (Mean ± SD) MMP-1” value on MMP-1 is reported as 87.79 ± 3.49%. The “Inhibition % (Mean ± SD) MMP-2” value on MMP-2 is listed as 100%. The “Inhibition % (Mean ± SD) MMP-8” value at MMP-8 was 100%. On MMP-9 (1.3 μM), the “Inhibition % (Mean ± SD) MMP-9” value is 88.44 ± 3.35%. Moreover, at MMP-13, the “Inhibition % (Mean ± SD) MMP-13” value was 93.74 ± 3.06%.

Broadly, the inhibition is the percentage by which the read-out fell short of the control. As usually defined, the melting point is the temperature of the solid-liquid transition.
